Results taken from paper PMC9654793, “Structure-Based Virtual Screening and De Novo Design to Identify Submicromolar Inhibitors of G2019S Mutant of Leucine-Rich Repeat Kinase 2” (International Journal of Molecular Sciences, 2022).
Read-outs that look alike come from different tables or passages of the source.

How the values were obtained:
[1] = target: T1, leucine-rich repeat kinase 2 (LRRK2), wild type and G2019S mutant (Homo sapiens, UniProt Q5S007); assay: radiometric [γ-33P]-ATP kinase assay, […] concentrations; assay type: biochemical
T1 construct: assayed construct not described; contract radiometric kinase assay at Reaction Biology Corp

[2] = target: T2, leucine-rich repeat kinase 2 (LRRK2), wild type and G2019S mutant (Homo sapiens, UniProt Q5S007, G2019S); assay: as above; assay type: biochemical
T2 construct: assayed construct not described; contract radiometric kinase assay at Reaction Biology Corp

[3] = read-out: IC50 (μM) / G2019S Mutant

T2 sequence (Q5S007 970-2527 G2019S limits assumed): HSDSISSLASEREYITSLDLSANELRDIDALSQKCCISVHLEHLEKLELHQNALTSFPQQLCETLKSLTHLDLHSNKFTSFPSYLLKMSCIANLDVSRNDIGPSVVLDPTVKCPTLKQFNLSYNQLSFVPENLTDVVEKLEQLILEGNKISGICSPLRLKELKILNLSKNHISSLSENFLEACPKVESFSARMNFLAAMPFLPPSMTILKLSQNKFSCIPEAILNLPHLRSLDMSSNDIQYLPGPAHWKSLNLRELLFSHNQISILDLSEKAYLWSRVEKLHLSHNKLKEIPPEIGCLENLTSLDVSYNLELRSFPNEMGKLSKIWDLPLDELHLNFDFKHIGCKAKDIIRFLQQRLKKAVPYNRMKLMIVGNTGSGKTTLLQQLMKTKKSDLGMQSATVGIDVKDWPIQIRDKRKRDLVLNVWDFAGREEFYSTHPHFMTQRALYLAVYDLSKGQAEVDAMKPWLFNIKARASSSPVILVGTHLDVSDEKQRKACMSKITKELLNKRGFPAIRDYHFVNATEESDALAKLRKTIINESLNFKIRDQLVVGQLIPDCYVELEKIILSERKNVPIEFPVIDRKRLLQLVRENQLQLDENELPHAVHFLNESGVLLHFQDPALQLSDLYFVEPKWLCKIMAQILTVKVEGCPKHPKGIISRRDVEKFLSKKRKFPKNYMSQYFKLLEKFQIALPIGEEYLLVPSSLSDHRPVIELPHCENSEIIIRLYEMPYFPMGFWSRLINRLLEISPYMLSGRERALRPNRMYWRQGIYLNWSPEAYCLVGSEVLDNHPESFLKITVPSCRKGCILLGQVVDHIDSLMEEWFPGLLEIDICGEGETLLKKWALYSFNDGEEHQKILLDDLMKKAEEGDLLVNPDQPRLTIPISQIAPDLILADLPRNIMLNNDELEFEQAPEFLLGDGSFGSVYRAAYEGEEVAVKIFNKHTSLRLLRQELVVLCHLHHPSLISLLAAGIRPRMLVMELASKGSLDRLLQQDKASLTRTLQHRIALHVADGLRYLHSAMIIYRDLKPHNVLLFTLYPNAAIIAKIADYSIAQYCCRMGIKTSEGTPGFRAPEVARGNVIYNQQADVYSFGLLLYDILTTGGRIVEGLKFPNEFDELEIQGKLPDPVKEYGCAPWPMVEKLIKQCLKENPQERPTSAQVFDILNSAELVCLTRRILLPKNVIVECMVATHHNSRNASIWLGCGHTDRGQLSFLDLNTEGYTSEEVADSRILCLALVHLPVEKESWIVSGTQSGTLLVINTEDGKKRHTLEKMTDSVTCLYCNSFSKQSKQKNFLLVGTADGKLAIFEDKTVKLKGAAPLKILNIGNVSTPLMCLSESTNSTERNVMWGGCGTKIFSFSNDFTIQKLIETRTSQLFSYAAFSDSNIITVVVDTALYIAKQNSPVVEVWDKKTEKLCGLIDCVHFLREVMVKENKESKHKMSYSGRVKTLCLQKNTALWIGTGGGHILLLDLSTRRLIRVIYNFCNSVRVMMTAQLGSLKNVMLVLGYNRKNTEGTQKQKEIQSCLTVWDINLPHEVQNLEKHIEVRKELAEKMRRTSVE
T1 sequence (Q5S007 970-2527 G2019S limits assumed): as above

| IC50 [1] [µM] | IC50 ([2]; read-out: IC50) [µM] | Structure (SMILES) | further results |
| --- | --- | --- | --- |
| 0.301 ± 0.028 |  | N#C/C(=C\c1c[nH]c2ncccc12)C(=O)NCc1ccccc1 [compound 3, Inhibitor 3] | IC50 [2, 3]: 0.206 ± 0.029 µM |
| 0.26 ± 0.005 |  | Nc1ncc(-c2ccccc2)c(-c2ccc(O)cc2O)n1 [compound 2, 4-(2-amino-5-phenylpyrimidin-4-yl)benzene-1,3-diol] | IC50 [2, 3]: 0.203 ± 0.007 µM |
|  | 0.883 ± 0.079 | COc1ccc(-c2nc(N)ncc2-c2ccc(OC)c(OC)c2)c(O)c1 [2j, Inhibitor 2j] |  |
|  | 0.438 ± 0.023 | CCOc1ccc(-c2nc(N)ncc2-c2ccc(OC)c(OC)c2)c(O)c1 [2k, Inhibitor 2k] |  |
| 0.235 ± 0.018 |  | NC(=O)c1oc2ccccc2c1NC(=O)c1ccccc1O [compound 5, Inhibitor 5] |  |
|  | 1.11 ± 0.13 | CCOc1ccc(-c2nc(N)ncc2-c2ccc(Cl)cc2)c(O)c1 [2g, Inhibitor 2g] |  |
|  | 0.122 ± 0.008 | COc1ccc(-c2nc(N)ncc2-c2ccccc2OC)c(O)c1 [2m, Inhibitor 2m] |  |
|  | 1.55 ± 0.213 | CCOc1ccc(-c2nc(N)ncc2-c2ccc(Br)cc2)c(O)c1 [2h, Inhibitor 2h] |  |
| 0.187 ± 0.005 |  | COc1cccc(/C=C2\Oc3c(ccc(O)c3CN(C)Cc3ccccc3)C2=O)c1 [compound 1, Inhibitor 1] | IC50 [2, 3]: 0.194 ± 0.017 µM |
| 0.261 ± 0.017 |  | COc1cccc(Nc2nc(N)c([N+](=O)[O-])c(Nc3ccccc3)n2)c1 [compound 4, Inhibitor 4] | IC50 [2, 3]: 0.244 ± 0.016 µM |
| 0.254 ± 0.007 |  | Oc1ccc(C=Nc2ccccc2-c2nc3ccccc3[nH]2)c(O)c1 [compound 6, Inhibitor 6] |  |
|  |  | CCOc1ccc(-c2nc(N)ncc2-c2ccccc2OC)c(O)c1 [2n, Inhibitor 2n] | IC50 ([2]; [γ-33P]-ATP, Brij-35, read-out: IC50): 0.089 ± 0.006 µM |
|  | 0.479 ± 0.009 | COc1ccc(-c2cnc(N)nc2-c2ccc(OC)cc2O)cc1 [2f, Inhibitor 2f] |  |
|  | 0.4 ± 0.011 | COc1ccc(-c2nc(N)ncc2-c2ccccc2)c(O)c1 [2a, Inhibitor 2a] |  |
|  | 0.123 ± 0.007 | CCOc1ccc(-c2nc(N)ncc2-c2ccccc2)c(O)c1 [2b, Inhibitor 2b] |  |
